Values after ≈ are worked out from the molar mass of the structure shown.

Experiment [1] relates to Staphylococcus aureus. Nature of the experiment: Antimicrobial activity against nosocomially-acquired methicillin-resistant Staphylococcus aureus by time-kill methodology. It counts as functional.
Experiment [2] relates to Staphylococcus aureus. Nature of the experiment: Antimicrobial activity against community-acquired methicillin-resistant Staphylococcus aureus Panton-Valentine leukocidin positive by time-kill methodology. It counts as functional.
Experiment [3] has as its system Staphylococcus aureus. Put plainly: Antimicrobial activity against vancomycin-intermediate Staphylococcus aureus by time-kill methodology. It is filed as functional.
Experiment [4] has as its system Staphylococcus aureus. Nature of the experiment: Antimicrobial activity against community-acquired methicillin-resistant Staphylococcus aureus Panton-Valentine leukocidin negative by time-kill methodology. It counts as functional.
The test system of experiment [5] is Staphylococcus aureus. Nature of the experiment: Antimicrobial activity against methicillin-susceptible Staphylococcus aureus by time-kill methodology.
In experiment [6] the test system is Staphylococcus aureus. Nature of the experiment: Antimicrobial activity against vancomycin-resistant Staphylococcus aureus by time-kill methodology. It counts as functional.

By MIC is commonly meant the smallest concentration in the dilution series that meets the test's criterion for growth inhibition. Read a low MIC as inhibition by little substance. For `CCCCCCCCCC(=O)N[C@@H](Cc1c[nH]c2ccccc12)C(=O)N[C@H](CC(N)=O)C(=O)N[C@@H](CC(=O)O)C(=O)N[C@@H]1C(=O)NCC(=O)N[C@@H](CCCN)C(=O)N[C@@H](CC(=O)O)C(=O)N[C@H](C)C(=O)N[C@@H](CC(=O)O)C(=O)NCC(=O)N[C@H](CO)C(=O)N[C@@H]([C@H](C)CC(=O)O)C(=O)N[C@@H](CC(=O)c2ccccc2N)C(=O)O[C@@H]1C`, the MIC against Staphylococcus aureus [1] was found to be 0.25 µg/mL (≈ 0.154 µM); in the experiment on Staphylococcus aureus [2], 0.5 µg/mL (≈ 0.309 µM); against Staphylococcus aureus [3], 2 µg/mL (≈ 1.23 µM); in the experiment on Staphylococcus aureus [4] it was 0.5 µg/mL (≈ 0.309 µM); against Staphylococcus aureus [5], 0.25 µg/mL (≈ 0.154 µM); against Staphylococcus aureus [6], 0.25 µg/mL (≈ 0.154 µM).
GENTAMICIN: the MIC was found to be 1 µg/mL with Staphylococcus aureus [1]; 1 µg/mL with Staphylococcus aureus [2]; 1 µg/mL in the experiment with Staphylococcus aureus [3]; 1 µg/mL against Staphylococcus aureus [4]; 64 µg/mL in the experiment on Staphylococcus aureus [6].
With `CO[C@H]1/C=C/O[C@@]2(C)Oc3c(C)c(O)c4c(O)c(c(/C=N/N5CCN(C)CC5)c(O)c4c3C2=O)NC(=O)/C(C)=C\C=C\[C@H](C)[C@H](O)[C@@H](C)[C@@H](O)[C@@H](C)[C@H](OC(C)=O)[C@@H]1C` [RIFAMPIN], the MIC in the experiment with Staphylococcus aureus [1] was found to be 0.004 µg/mL (≈ 0.00486 µM); against Staphylococcus aureus [2], 0.004 µg/mL (≈ 0.00486 µM); against Staphylococcus aureus [3], 0.016 µg/mL (≈ 0.0194 µM); against Staphylococcus aureus [4], 0.016 µg/mL (≈ 0.0194 µM); against Staphylococcus aureus [5] it was 0.008 µg/mL (≈ 0.00972 µM); in the experiment on Staphylococcus aureus [6], 0.008 µg/mL (≈ 0.00972 µM).

Source of the values: ChEMBL document CHEMBL1145539 (2007).
